Test results reported in patent publication US12655142B2 (Merck Patent GmbH, priority 2019, dated 2026).
pIC50: −log10 of the molar value.

Experiments:
[1] = biological target: T1, GIST430/654 cell line expressing mutated constitutively active cKIT receptor tyrosine kinase (Δ560-576 deletion and V654A point mutation) (Homo sapiens, UniProt P10721, DEL560-576/V654A); assay: Cellular cKIT autophosphorylation (phospho-Y307-cKIT, Luminex bead assay) in GIST430/654 cells; type: cell-based; settings: compounds 45 min, read-out: GIST 430/654 IC50
T1 construct: endogenous in cells; host or cells: GIST430/654 cells
Outline: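 GIST430 (Δ560-576) and imatinib-resistant GIST430/654 (plus V654A; grown with 100 nM imatinib) cells were plated in IMDM/15% FCS and treated next day with serially diluted compound for 45 min. Lysates were captured on anti-total-cKIT Luminex beads overnight at 4 °C and probed for phospho-Y307. IC50 was taken from percent of 0.3% DMSO control.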

[2] = Determination of Efflux-Ratio (ER) in Caco-2 cells; settings: human, Caco-2, pH 7.4
Method: Determination of Efflux-Ratio (ER) in Caco-2 Cells
The efflux ratio of the test compounds was determined in Caco-2 human epithelial colorectal adenocarcinoma cell line (TC7 clone) using calculation of apparent permeability (Papp). Cell monolayers were differentiated in vitro for 14 days before the experiment. Subsequently, the test compound (in HBSS pH 7.4 at 1 μM final concentration) was applied on the donor side while HBSS buffer (pH 7.4) was added to the receiver wells. […] The plate was then incubated in a 5% CO2 incubator (37° C., 100% humidity). At the end of the 2 hours incubation period, 50 μL sample was removed from both donor and receiver wells and diluted 1:1 with equal volumes of acetonitrile for LC-MS/MS analysis. The LC-MS/MS analysis used a one-point calibration method from a 1 μM standard solution diluted 1:1 with equal volume of acetonitrile (consistent to the test samples).
The data was used to calculate the apparent permeabilities of the compounds in both apical to basolateral (Papp,AB) and basolateral to apical (Papp,BA) directions at 1 μM concentration in duplicate. The Papp values were calculated from the concentrations in the donor and receiver compartments using the following formula:
Efflux ratio was calculated according to the following formula:

c-Kit(V654A) = biological target: T2, c-Kit(V654A) (Homo sapiens, UniProt P10721, V654A); assay: c-Kit(V654A) assay (33P-ATP filter binding kinase assay); type: biochemical; settings: recombinant human c-Kit aa 544-end V654A, ATP 200 μM
T2 construct: recombinant human c-Kit, amino acids 544-end containing the V654A mutation; GST (N)
Outline: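 Radiometric filter-binding read-out: substrate 33P incorporation counted by scintillation after P30 filtermat washes in 75 mM phosphoric acid and methanol. Enzyme: N-GST recombinant human c-Kit aa 544-end carrying V654A.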

T1 sequence (P10721 with tags, fused parts or gaps DEL560-576/V654A): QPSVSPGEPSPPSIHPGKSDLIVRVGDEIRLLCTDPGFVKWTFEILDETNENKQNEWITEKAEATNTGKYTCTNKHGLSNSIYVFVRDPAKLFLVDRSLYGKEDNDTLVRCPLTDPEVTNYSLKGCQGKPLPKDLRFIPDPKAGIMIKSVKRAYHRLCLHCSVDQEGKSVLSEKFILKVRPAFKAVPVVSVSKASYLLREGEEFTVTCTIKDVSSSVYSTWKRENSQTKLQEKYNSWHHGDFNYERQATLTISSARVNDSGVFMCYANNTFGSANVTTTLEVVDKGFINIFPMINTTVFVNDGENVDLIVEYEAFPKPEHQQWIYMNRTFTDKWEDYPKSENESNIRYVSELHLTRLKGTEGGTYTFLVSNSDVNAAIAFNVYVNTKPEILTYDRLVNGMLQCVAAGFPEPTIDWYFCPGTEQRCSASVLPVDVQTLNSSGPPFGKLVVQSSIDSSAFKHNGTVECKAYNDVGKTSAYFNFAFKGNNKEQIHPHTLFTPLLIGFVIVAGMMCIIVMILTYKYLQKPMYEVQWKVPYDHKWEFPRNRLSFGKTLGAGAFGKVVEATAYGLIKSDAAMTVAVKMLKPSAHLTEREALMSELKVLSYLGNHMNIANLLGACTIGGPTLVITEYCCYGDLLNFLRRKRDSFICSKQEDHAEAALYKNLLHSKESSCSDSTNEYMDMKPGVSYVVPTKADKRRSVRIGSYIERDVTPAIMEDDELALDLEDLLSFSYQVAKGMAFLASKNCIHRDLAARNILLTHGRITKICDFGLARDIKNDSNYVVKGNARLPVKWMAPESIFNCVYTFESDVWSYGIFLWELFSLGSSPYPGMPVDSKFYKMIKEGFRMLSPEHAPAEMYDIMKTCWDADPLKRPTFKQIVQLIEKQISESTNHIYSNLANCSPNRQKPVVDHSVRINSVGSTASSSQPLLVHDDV
T2 sequence (P10721 544-976 V654A): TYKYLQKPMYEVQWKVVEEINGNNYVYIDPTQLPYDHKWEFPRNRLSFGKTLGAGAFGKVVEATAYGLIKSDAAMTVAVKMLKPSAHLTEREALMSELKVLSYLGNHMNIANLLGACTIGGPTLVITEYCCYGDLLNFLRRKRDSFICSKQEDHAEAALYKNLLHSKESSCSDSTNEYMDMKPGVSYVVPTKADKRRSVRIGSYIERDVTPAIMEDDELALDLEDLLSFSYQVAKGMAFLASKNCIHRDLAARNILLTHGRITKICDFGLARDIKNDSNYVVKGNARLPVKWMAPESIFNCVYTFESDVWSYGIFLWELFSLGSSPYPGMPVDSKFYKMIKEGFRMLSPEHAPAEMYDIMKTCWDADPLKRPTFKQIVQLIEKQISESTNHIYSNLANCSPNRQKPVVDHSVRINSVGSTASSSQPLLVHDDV

SMILES	pIC50 [1]	efflux ratio at 2 h, 1 μM [2]	pIC50 (c-Kit(V654A))
Cn1cc(-c2ccc(CNc3cc(-c4cnc5cc(OCCCN6CCN(C7CC7)CC6)ccn45)ncn3)cc2)cn1 [A243, (6-{7-[3-(4-cyclopropyl-piperazin-1-yl)-propoxy]-imidazo[1,2-a]pyridin-3-yl}-pyrimidin-4-yl)-[4-(1-methyl-1H-pyrazol-4-yl)-benzyl]-amine]	7.40	< 15	8.17
Cn1cc(-c2ccc(CNc3cc(-c4cnc5cc(N6CCC(O)C6)ccn45)ncn3)cc2)cn1 (stereo not drawn) [A245, 1-(3-{6-[4-(1-methyl-1H-pyrazol-4-yl)-benzylamino]-pyrimidin-4-yl}-imidazo[1,2-a]pyridin-7-yl)-pyrrolidin-3-ol]	7.08	> 50	7.89
Cn1cc(-c2ccc(CNc3cc(-c4cnc5cc(N6CC7(COC7)C6)ccn45)ncn3)cc2)cn1 [A246, [4-(1-methyl-1H-pyrazol-4-yl)-benzyl]-{6-[7-(2-oxa-6-aza-spiro[3.3]hept-6-yl)-imidazo[1,2-a]pyridin-3-yl]-pyrimidin-4-yl}-amine]	7.42	< 15	8.10
Cn1cc(-c2ccc(CNc3cc(-c4cnc5cc(N6CCC7(COC7)C6)ccn45)ncn3)cc2)cn1 [A247, [4-(1-methyl-1H-pyrazol-4-yl)-benzyl]-{6-[7-(2-oxa-6-aza-spiro[3.4]oct-6-yl)-imidazo[1,2-a]pyridin-3-yl]-pyrimidin-4-yl}-amine]	7.21	< 15	8.11
CN1CC2(CN(CCOc3ccn4c(-c5cc(NCc6ccc(-c7cnn(C)c7)cc6)ncn5)cnc4c3)C2)OC1=O [A248, 7-methyl-2-[2-(3-{6-[4-(1-methyl-1H-pyrazol-4-yl)-benzylamino]-pyrimidin-4-yl}-imidazo[1,2-a]pyridin-7-yloxy)-ethyl]-5-oxa-2,7-diaza-spiro[3.4]octan-6-one]	6.80	> 50	7.68
CC(Nc1cc(-c2cnc3cc(OCCCN4CCC4)ccn23)ncn1)c1ccc(-c2cnn(C)c2)cc1 (stereo not drawn) [A249, {6-[7-(3-azetidin-1-yl-propoxy)-imidazo[1,2-a]pyridin-3-yl]-pyrimidin-4-yl}-{1-[4-(1-methyl-1H-pyrazol-4-yl)-phenyl]-ethyl}-amine]	6.36	> 50	7.06
CC(Nc1cc(-c2cnc3cc(OCCCN4CCCC4)ccn23)ncn1)c1ccc(-c2cnn(C)c2)cc1 (stereo not drawn) [A250, {1-[4-(1-methyl-1H-pyrazol-4-yl)-phenyl]-ethyl}-{6-[7-(3-pyrrolidin-1-yl-propoxy)-imidazo[1,2-a]pyridin-3-yl]-pyrimidin-4-yl}-amine]	6.39	> 50	6.96
OCCOc1ccn2c(-c3cc(NCc4ccc(-c5cocn5)cc4)ncn3)cnc2c1 [A251, 2-{3-[6-(4-oxazol-4-yl-benzylamino)-pyrimidin-4-yl]-imidazo[1,2-a]pyridin-7-yloxy}-ethanol]	7.36	< 15	8.70
Cn1cc(-c2ccc(CNc3cc(-c4cnc5cc(OCCn6cccn6)ccn45)ncn3)cc2)cn1 [A255, N-{[4-(1-methyl-1H-pyrazol-4-yl)phenyl]methyl}-6-{7-[2-(1H-pyrazol-1-yl)ethoxy]imidazo[1,2-a]pyridin-3-yl}pyrimidin-4-amine]	7.00	< 15	7.82
Cn1cc(-c2ccc(CNc3cc(-c4cnc5cc(OCCCn6cccn6)ccn45)ncn3)cc2)cn1 [A257, N-{[4-(1-methyl-1H-pyrazol-4-yl)phenyl]methyl}-6-{7-[3-(1H-pyrazol-1-yl)propoxy]imidazo[1,2-a]pyridin-3-yl}pyrimidin-4-amine]	6.89	< 15	7.80
